Test results taken from ChEMBL document CHEMBL1909294, “Translating clinical findings into knowledge in drug safety evaluation--drug induced liver injury prediction system (DILIps)” (PLoS Comput Biol, 2011).

Key:
[1] = system: Hepatotoxicity;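 as to HepSE bilirubinemia: bilirubinemia hepatic side effect score drawn from the DILIps training data, a prediction system for drug-induced liver injury; call rule not given here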;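 as to HepSE cholecystitis: Cholecystitis-related hepatic side effect score drawn from the DILIps (drug-induced liver injury prediction) training data set; call rule not given here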;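 as to HepSE cholelithiasis: hepatic side effect score for cholelithiasis, drawn from the DILIps training data for predicting drug-induced liver injury; call rule not given here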;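 as to HepSE cirrhosis: cirrhosis hepatic side effect score taken from the DILIps (drug-induced liver injury prediction) training set; call rule not given here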;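 as to HepSE elevated liver function tests: hepatic side effect score for raised liver function tests, as recorded in the DILIps training set used for predicting drug-induced liver injury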; as to HepSE hepatic failure: call rule not given here;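 as to HepSE hepatomegaly: hepatic side effect score for hepatomegaly, taken from the training set of the DILIps drug-induced liver injury prediction system; call rule not given here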
[2] = system: Hepatotoxicity; remark: listed apart in the source;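 as to HepSE bilirubinemia: bilirubinemia hepatic side effect score drawn from the DILIps training data, a prediction system for drug-induced liver injury; call rule not given here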;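 as to HepSE cholecystitis: Cholecystitis-related hepatic side effect score drawn from the DILIps (drug-induced liver injury prediction) training data set; call rule not given here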;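 as to HepSE cholelithiasis: hepatic side effect score for cholelithiasis, drawn from the DILIps training data for predicting drug-induced liver injury; call rule not given here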;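 as to HepSE cirrhosis: cirrhosis hepatic side effect score taken from the DILIps (drug-induced liver injury prediction) training set; call rule not given here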;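 as to HepSE elevated liver function tests: hepatic side effect score for raised liver function tests, as recorded in the DILIps training set used for predicting drug-induced liver injury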; as to HepSE hepatic failure: call rule not given here
[3] = system: Hepatotoxicity; remark: listed apart in the source;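 as to HepSE bilirubinemia: bilirubinemia hepatic side effect score drawn from the DILIps training data, a prediction system for drug-induced liver injury; call rule not given here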;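 as to HepSE cholecystitis: Cholecystitis-related hepatic side effect score drawn from the DILIps (drug-induced liver injury prediction) training data set; call rule not given here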;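 as to HepSE cholelithiasis: hepatic side effect score for cholelithiasis, drawn from the DILIps training data for predicting drug-induced liver injury; call rule not given here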;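 as to HepSE cirrhosis: cirrhosis hepatic side effect score taken from the DILIps (drug-induced liver injury prediction) training set; call rule not given here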;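 as to HepSE elevated liver function tests: hepatic side effect score for raised liver function tests, as recorded in the DILIps training set used for predicting drug-induced liver injury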; as to HepSE hepatic failure: call rule not given here
[4] = system: Hepatotoxicity; remark: listed apart in the source;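 as to HepSE bilirubinemia: bilirubinemia hepatic side effect score drawn from the DILIps training data, a prediction system for drug-induced liver injury; call rule not given here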;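 as to HepSE cholecystitis: Cholecystitis-related hepatic side effect score drawn from the DILIps (drug-induced liver injury prediction) training data set; call rule not given here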;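 as to HepSE cholelithiasis: hepatic side effect score for cholelithiasis, drawn from the DILIps training data for predicting drug-induced liver injury; call rule not given here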;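 as to HepSE cirrhosis: cirrhosis hepatic side effect score taken from the DILIps (drug-induced liver injury prediction) training set; call rule not given here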;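 as to HepSE elevated liver function tests: hepatic side effect score for raised liver function tests, as recorded in the DILIps training set used for predicting drug-induced liver injury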; as to HepSE hepatic failure: call rule not given here
[5] = system: Hepatotoxicity; remark: listed apart in the source; as to HepSE hepatic failure: call rule not given here
[6] = system: Hepatotoxicity; remark: listed apart in the source; as to HepSE hepatic failure: call rule not given here
[7] = system: Hepatotoxicity; remark: listed apart in the source
[8] = system: Hepatotoxicity; remark: listed apart in the source
[9] = system: Hepatotoxicity; remark: listed apart in the source
[10] = system: Hepatotoxicity; remark: listed apart in the source
[11] = system: Hepatotoxicity; remark: listed apart in the source
[12] = system: Hepatotoxicity; remark: listed apart in the source
[13] = system: Hepatotoxicity; remark: listed apart in the source
[14] = system: Hepatotoxicity; remark: listed apart in the source

O=C1c2c(O)ccc(O)c2C(=O)c2c(NCCNCCO)ccc(NCCNCCO)c21 [MITOXANTRONE]
1: HepSE_hepatitis [8] | HepSE_jaundice [10]
0: HepSE_bilirubinemia [1] | HepSE_cholecystitis [2] | HepSE_cholelithiasis [3] | HepSE_cirrhosis [4] | HepSE_elevated liver function tests [5] | HepSE_hepatic failure [6] | HepSE_hepatic necrosis [7] | HepSE_hepatomegaly [9] | HepSE_liver disease [11] | HepSE_liver fatty [12] | HepSE_liver function tests abnormal [13]
2: HepSE_Combined Scores [14]

CN/C(=N/CCSCc1nc[nH]c1C)NC#N [CIMETIDINE]
0: HepSE_bilirubinemia ([1]; Liver) | HepSE_cholecystitis ([2]; Liver) | HepSE_cholelithiasis ([3]; Liver) | HepSE_cirrhosis ([4]; Liver) | HepSE_elevated liver function tests ([5]; Liver) | HepSE_hepatic failure ([6]; Liver) | HepSE_hepatic necrosis ([7]; Liver) | HepSE_hepatitis ([8]; Liver) | HepSE_hepatomegaly ([9]; Liver) | HepSE_jaundice ([10]; Liver) | HepSE_liver disease ([11]; Liver) | HepSE_liver fatty ([12]; Liver) | HepSE_liver function tests abnormal ([13]; Liver) | HepSE_Combined Scores ([14]; Liver)

COC(=O)C1=C(C)NC(C)=C(C(=O)OCCN(C)Cc2ccccc2)C1c1cccc([N+](=O)[O-])c1 (stereo unspecified) [NICARDIPINE]
0: HepSE_bilirubinemia [1] | HepSE_cholecystitis [2] | HepSE_cholelithiasis [3] | HepSE_cirrhosis [4] | HepSE_elevated liver function tests [5] | HepSE_hepatic failure [6] | HepSE_hepatic necrosis [7] | HepSE_hepatitis [8] | HepSE_hepatomegaly [9] | HepSE_jaundice [10] | HepSE_liver disease [11] | HepSE_liver fatty [12] | HepSE_liver function tests abnormal [13] | HepSE_Combined Scores [14]

CC(O)(P(=O)(O)O)P(=O)(O)O [ETIDRONIC ACID]
0: HepSE_bilirubinemia [1] | HepSE_cholecystitis [2] | HepSE_cholelithiasis [3] | HepSE_cirrhosis [4] | HepSE_elevated liver function tests [5] | HepSE_hepatic failure [6] | HepSE_hepatic necrosis [7] | HepSE_hepatitis [8] | HepSE_hepatomegaly [9] | HepSE_jaundice [10] | HepSE_liver disease [11] | HepSE_liver fatty [12] | HepSE_liver function tests abnormal [13] | HepSE_Combined Scores [14]

C[C@@H]1C[C@H]2[C@@H]3CCC4=CC(=O)C=C[C@]4(C)[C@@]3(F)[C@@H](O)C[C@]2(C)[C@H]1C(=O)CO [DESOXIMETASONE]
0: HepSE_bilirubinemia [1] | HepSE_cholecystitis [2] | HepSE_cholelithiasis [3] | HepSE_cirrhosis [4] | HepSE_elevated liver function tests [5] | HepSE_hepatic failure [6] | HepSE_hepatic necrosis [7] | HepSE_hepatitis [8] | HepSE_hepatomegaly [9] | HepSE_jaundice [10] | HepSE_liver disease [11] | HepSE_liver fatty [12] | HepSE_liver function tests abnormal [13] | HepSE_Combined Scores [14]

CC1(C)O[C@@H]2C[C@H]3[C@@H]4CCC5=CC(=O)C=C[C@]5(C)[C@H]4[C@@H](O)C[C@]3(C)[C@]2(C(=O)CO)O1 [DESONIDE]
0: HepSE_bilirubinemia [1] | HepSE_cholecystitis [2] | HepSE_cholelithiasis [3] | HepSE_cirrhosis [4] | HepSE_elevated liver function tests [5] | HepSE_hepatic failure [6] | HepSE_hepatic necrosis [7] | HepSE_hepatitis [8] | HepSE_hepatomegaly [9] | HepSE_jaundice [10] | HepSE_liver disease [11] | HepSE_liver fatty [12] | HepSE_liver function tests abnormal [13] | HepSE_Combined Scores [14]

CC(=O)N[C@H]1[C@H]([C@H](O)[C@H](O)CO)OC(C(=O)O)=C[C@@H]1N=C(N)N [ZANAMIVIR]
0: HepSE_bilirubinemia [1] | HepSE_cholecystitis [2] | HepSE_cholelithiasis [3] | HepSE_cirrhosis [4] | HepSE_elevated liver function tests [5] | HepSE_hepatic failure [6] | HepSE_hepatic necrosis [7] | HepSE_hepatitis [8] | HepSE_hepatomegaly [9] | HepSE_jaundice [10] | HepSE_liver disease [11] | HepSE_liver fatty [12] | HepSE_liver function tests abnormal [13] | HepSE_Combined Scores [14]

C1N2CN3CN1CN(C2)C3 [METHENAMINE]
0: HepSE_bilirubinemia [1] | HepSE_cholecystitis [2] | HepSE_cholelithiasis [3] | HepSE_cirrhosis [4] | HepSE_elevated liver function tests [5] | HepSE_hepatic failure [6] | HepSE_hepatic necrosis [7] | HepSE_hepatitis [8] | HepSE_hepatomegaly [9] | HepSE_jaundice [10] | HepSE_liver disease [11] | HepSE_liver fatty [12] | HepSE_liver function tests abnormal [13] | HepSE_Combined Scores [14]

Nc1ccc(S(=O)(=O)c2ccc(N)cc2)cc1 [DAPSONE]
0: HepSE_bilirubinemia ([1]; Liver) | HepSE_cholecystitis ([2]; Liver) | HepSE_cholelithiasis ([3]; Liver) | HepSE_cirrhosis ([4]; Liver) | HepSE_elevated liver function tests ([5]; Liver) | HepSE_hepatic failure ([6]; Liver) | HepSE_hepatic necrosis ([7]; Liver) | HepSE_hepatitis ([8]; Liver) | HepSE_hepatomegaly ([9]; Liver) | HepSE_jaundice ([10]; Liver) | HepSE_liver disease ([11]; Liver) | HepSE_liver fatty ([12]; Liver) | HepSE_liver function tests abnormal ([13]; Liver) | HepSE_Combined Scores ([14]; Liver)
